Consider seven compounds from patent US4778790A, “Perhydrothiazepine and perhydroazepine derivatives and their therapeutic use” (Sankyo Company Limited, priority 1986, dated 1988).

This test deals with T1, ACE extracted from rabbit lungs (Oryctolagus cuniculus, UniProt P12822).
T1 construct: ACE extracted from rabbit lungs; from tissue; host or cells: rabbit lung
T1 sequence (P12822 34-1310): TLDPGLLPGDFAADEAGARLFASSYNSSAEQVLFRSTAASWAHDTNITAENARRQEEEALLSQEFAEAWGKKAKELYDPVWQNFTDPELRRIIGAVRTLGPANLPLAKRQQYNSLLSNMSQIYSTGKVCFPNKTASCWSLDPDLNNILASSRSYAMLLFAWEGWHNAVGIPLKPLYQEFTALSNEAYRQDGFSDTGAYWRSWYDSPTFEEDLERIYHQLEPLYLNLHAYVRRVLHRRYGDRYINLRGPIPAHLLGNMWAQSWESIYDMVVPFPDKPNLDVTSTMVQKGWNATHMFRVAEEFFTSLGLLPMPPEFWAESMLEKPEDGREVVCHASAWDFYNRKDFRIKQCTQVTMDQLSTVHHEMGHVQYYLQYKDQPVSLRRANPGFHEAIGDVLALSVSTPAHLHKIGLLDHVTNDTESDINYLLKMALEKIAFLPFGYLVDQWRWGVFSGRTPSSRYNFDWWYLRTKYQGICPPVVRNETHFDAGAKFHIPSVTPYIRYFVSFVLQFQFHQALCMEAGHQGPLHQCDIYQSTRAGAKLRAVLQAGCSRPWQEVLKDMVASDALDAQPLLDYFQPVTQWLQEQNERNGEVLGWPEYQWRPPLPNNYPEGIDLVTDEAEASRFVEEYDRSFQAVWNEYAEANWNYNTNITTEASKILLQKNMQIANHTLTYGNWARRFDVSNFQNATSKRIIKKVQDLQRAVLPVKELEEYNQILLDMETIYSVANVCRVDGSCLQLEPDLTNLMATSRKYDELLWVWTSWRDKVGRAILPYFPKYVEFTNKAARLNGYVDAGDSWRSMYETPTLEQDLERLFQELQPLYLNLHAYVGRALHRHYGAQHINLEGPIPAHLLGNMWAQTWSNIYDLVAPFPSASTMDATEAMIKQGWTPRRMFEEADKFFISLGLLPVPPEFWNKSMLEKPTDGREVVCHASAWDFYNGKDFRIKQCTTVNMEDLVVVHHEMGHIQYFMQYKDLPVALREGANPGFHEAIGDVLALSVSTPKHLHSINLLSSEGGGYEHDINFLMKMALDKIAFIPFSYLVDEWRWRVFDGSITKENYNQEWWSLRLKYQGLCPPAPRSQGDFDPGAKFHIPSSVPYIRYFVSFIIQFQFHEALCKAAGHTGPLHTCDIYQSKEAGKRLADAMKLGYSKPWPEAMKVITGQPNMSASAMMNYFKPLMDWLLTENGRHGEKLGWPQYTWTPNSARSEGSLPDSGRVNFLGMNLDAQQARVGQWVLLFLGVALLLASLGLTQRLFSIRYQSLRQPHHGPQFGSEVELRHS
Kind of test: in vitro ACE inhibition (hippurylhistidylleucine substrate, procedure of Cushman et al.). Type of test: biochemical. As to conditions: rabbit lung ACE, borate buffer with NaCl, pH 8.3, 37° C., 30 minutes, read-out: IC50 (concentration required to inhibit the activity of ACE by 50% in vitro). An excerpt: As noted above, the compounds of the present invention have the ability to inhibit the activity of ACE, the enzyme which converts angiotensin I to angiotensin II and also inactivates bradykinin. The physiological activity of the compounds of the invention can be evaluated by determining the concentration of the test compound required to inhibit the activity of ACE by 50% in vitro (IC50), for example by the procedure of D. W. Cushman et al. [Biochemical Pharmacology, 20, 1637 (1971)]. Specifically, solutions of ACE extracted from rabbit lungs and, as substrate, hippurylhistidylleucine, to which had been added the test compound at various concentrations, were added to a borate buffer solution containing sodium chloride, and the pH was adjusted to a value of 8.3. The enzymatic reaction was allowed to proceed at 37° C. for 30 minutes, after which time the reaction was terminated by adding 1N aqueous hydrochloric acid. […] The residual hippuric acid was dissolved in water. The amount of hippuric acid in the resulting aqueous solution was determined by the absorbency to ultraviolet radiation at 228 nm. The resulting values were then plotted to form a curve indicating the relationship between the amount of hippuric acid formed and the concentration of the test compound. The IC50 value can be obtained by reading on this curve the concentration of the test compound which reduces the amount of hippuric acid formed to one half of that formed when no test compound is present.

The structures appear in SMILES notation. Counter-ions that a name gives are not always drawn.

Turning to `NCCCCCCC(NC1CSC(c2ccccc2)CN(CC(=O)O)C1=O)C(=O)O` [C, rel-α-}6(R)-[7-Amino-1(S)-carboxyheptylamino]-5-oxo-2(R)-phenylperhydro-1,4-thiazepin-4-yl}acetic acid], the IC50 was found to be 3.1 nM.
The result for `NCCCCCCCC(NC1CCC(c2ccccc2)CN(CC(=O)O)C1=O)C(=O)O` [E, rel-α-{3(S)-[8-Amino-1(S)-carboxyoctylamino]-2-oxo-6(R)-phenylperhydrozepin-1-yl}acetic acid] reads 4.1 nM; that for `O=C(O)CN1C[C@@H](c2cccs2)SC[C@H](N[C@@H](CCCCC2CCNCC2)C(=O)O)C1=O` [F, α-{6(R)-[1(S)-Carboxy-5-(4-piperidyl)pentylamino]-5-oxo-2(S)-(2-thienyl)perhydro-1,4-thiazepin-4-yl}acetic acid], 1.6 nM; that for `NCCCCCCC[C@H](N[C@H]1CS[C@H](c2cccs2)CN(CC(=O)O)C1=O)C(=O)O` [D], 1.6 nM.
The result for `NCCCCCC[C@H](N[C@H]1CS[C@H](c2cccs2)CN(CC(=O)O)C1=O)C(=O)O` [B, α-{6(R)-[7-Amino-1(S)-carboxyheptylamino]-5-oxo-2(S)-(2-thienyl)perhydro-1,4-thiazepin-4-yl}acetic acid] reads 2 nM; that for `NCCCC[C@H](N[C@H]1CS[C@H](c2cccs2)CN(CC(=O)O)C1=O)C(=O)O` [A, α-{6(R)-[5-Amino-1(S)-carboxypentylamino]-5-oxo-2(S)-(2-thienyl)perhydro-1,4-thiazepin-4-yl}acetic acid dihydrochloride], 3.3 nM; that for `O=C(O)CN1C[C@@H](c2ccccc2)CC[C@H](N[C@@H](CCCCC2CCNCC2)C(=O)O)C1=O` (relative stereo) [G, rel-α-{3(S)-[1(S)-Carboxy-5-(4-piperidyl)pentylamino]-2-oxo-6(R)-phenylperhydroazepin-1-yl}acetic acid], 3.7 nM.
